Key:
Type in all cases: in vivo
Conditions in all cases: evaluated after 13 days
[1] = tested on: Amaranthus palmeri (AMAPA); experiment: Pre-emergence Test (Table B1)
[2] = tested on: Setaria faberi (SETFA); experiment: Pre-emergence Test (Table B1); parameters: key: 5=81-100%; 4=61-80%; 3=41-60%; 2=21-40%; 1=0-20%; 0=inactive
[3] = tested on: Echinochloa crus-galli (ECHCG); experiment: Pre-emergence Test (Table B1); parameters: key: 5=81-100%; 4=61-80%; 3=41-60%; 2=21-40%; 1=0-20%; 0=inactive
[4] = tested on: Amaranthus retroflexus (AMARE); experiment: Pre-emergence Test (Table B1)
[5] = tested on: Zea mays (ZEAMX); experiment: Pre-emergence Test (Table B1); parameters: key: 5=81-100%; 4=61-80%; 3=41-60%; 2=21-40%; 1=0-20%; 0=inactive
[6] = tested on: Ipomoea hederacea (IPOHE); experiment: Pre-emergence Test (Table B1); parameters: key: 5=81-100%; 4=61-80%; 3=41-60%; 2=21-40%; 1=0-20%; 0=inactive
[7] = tested on: Amaranthus palmeri (AMAPA); experiment: Post-emergence Test (Table B2)
Procedure: (§1) Seeds of a variety of test species are sown in standard soil in pots (Amaranthus palmeri (AMAPA), Setaria faberi (SETFA), Echinochloa crus-galli (ECHCG), (Amaranthus retroflexus (AMARE), Zea mays (ZEAMX), Ipomoea hederacea (IPOHE)). After 8 days cultivation under controlled conditions in a glasshouse (at 24° C./16° C., day/night; 14 hours light; 65% humidity), the plants are sprayed with an aqueous spray solution derived from the formulation of the technical active ingredient in acetone/water (50:50) solution containing 0.5% Tween 20 (polyoxyethelyene sorbitan monolaurate, CAS RN 9005-64-5). Compounds are applied at 1000 g/ha unless otherwise stated. The test plants are then grown in a glasshouse under controlled conditions in a glasshouse (at 24° C./16° C., day/night; 14 hours light; 65% humidity) and watered twice daily. After 13 days the test is evaluated for the percentage damage caused to the plant.

[8] = tested on: Amaranthus retroflexus (AMARE); experiment: Post-emergence Test (Table B2)
Procedure: as §1

[9] = tested on: Setaria faberi (SETFA); experiment: Post-emergence Test (Table B2)
Procedure: as §1

[10] = tested on: Echinochloa crus-galli (ECHCG); experiment: Post-emergence Test (Table B2); parameters: key: 5=81-100%; 4=61-80%; 3=41-60%; 2=21-40%; 1=0-20%; 0=inactive
Procedure: as §1

[11] = tested on: Ipomoea hederacea (IPOHE); experiment: Post-emergence Test (Table B2); parameters: key: 5=81-100%; 4=61-80%; 3=41-60%; 2=21-40%; 1=0-20%; 0=inactive
Procedure: as §1

[12] = tested on: Zea mays (ZEAMX); experiment: Post-emergence Test (Table B2); parameters: key: 5=81-100%; 4=61-80%; 3=41-60%; 2=21-40%; 1=0-20%; 0=inactive
Procedure: as §1

[13] = lower rate of 250 g per hectare

SMILES	percentage damage caused to the plant, AMAPA ([1]; 1000 g/ha)	percentage damage caused to the plant, SETFA ([2]; 1000 g/ha)	percentage damage caused to the plant, ECHCG ([3]; 1000 g/ha)	percentage damage caused to the plant, AMARE ([4]; 1000 g/ha)	percentage damage caused to the plant, ZEAMX ([5]; 1000 g/ha)	percentage damage caused to the plant, IPOHE ([6]; 1000 g/ha)	percentage damage caused to the plant, AMAPA ([7]; 1000 g/ha)	percentage damage caused to the plant, AMARE ([8]; 1000 g/ha)	percentage damage caused to the plant, SETFA ([9]; 1000 g/ha)	percentage damage caused to the plant, ECHCG ([10]; 1000 g/ha)	percentage damage caused to the plant, IPOHE ([11]; 1000 g/ha)	percentage damage caused to the plant, ZEAMX ([12]; 1000 g/ha)	further results
CCOCC(C)OC(=O)c1ccc(F)c(-c2c(C)n(CC)c(-c3ccc(Cl)c(Cl)c3)c(C(=O)O)c2=O)c1 (stereo not drawn) [Compound 14, 2-(3,4-dichlorophenyl)-5-[5-(2-ethoxy-1-methyl-ethoxy)carbonyl-2-fluoro-phenyl]-1-ethyl-6-methyl-4-oxo-pyridine-3-carboxylic acid]	5 (5=81-100%)	3 (3=41-60%)	0	5 (5=81-100%)	0	0	5 (5=81-100%)	5 (5=81-100%)	3 (3=41-60%)	3 (3=41-60%)	0	1 (1=0-20%)	
CC#CC(C)OC(=O)c1ccc(F)c(-c2c(C)n(CC)c(-c3ccc(Cl)c(Cl)c3)c(C(=O)O)c2=O)c1 (stereo not drawn) [Compound 15, 2-(3,4-dichlorophenyl)-1-ethyl-5-[2-fluoro-5-(1-methylbut-2-ynoxycarbonyl)phenyl]-6-methyl-4-oxo-pyridine-3-carboxylic acid]	5 (5=81-100%)	0	0	5 (5=81-100%)	0	0	5 (5=81-100%)	5 (5=81-100%)	5 (5=81-100%)	5 (5=81-100%)	2 (2=21-40%)	4 (4=61-80%)	
C#CC(C)OC(=O)c1cc(-c2c(C)n(CC)c(-c3ccc(Cl)c(Cl)c3)c(C(=O)O)c2=O)c(F)cc1Cl (stereo not drawn) [Compound 20, 5-[4-chloro-2-fluoro-5-(1-methylprop-2-ynoxycarbonyl)phenyl]-2-(3,4-dichlorophenyl)-1-ethyl-6-methyl-4-oxo-pyridine-3-carboxylic acid]	5 (5=81-100%)	3 (3=41-60%)	3 (3=41-60%)	5 (5=81-100%)	0	0	5 (5=81-100%)	5 (5=81-100%)	5 (5=81-100%)	5 (5=81-100%)	4 (4=61-80%)	4 (4=61-80%)	
C=CC(C)OC(=O)c1cc(-c2c(C)n(CC)c(-c3ccc(Cl)c(Cl)c3)c(C(=O)O)c2=O)c(F)cc1Cl (stereo not drawn) [Compound 21, 5-[4-chloro-2-fluoro-5-(1-methylallyloxycarbonyl)phenyl]-2-(3,4-dichlorophenyl)-1-ethyl-6-methyl-4-oxo-pyridine-3-carboxylic acid]	5 (5=81-100%)	2 (2=21-40%)	4 (4=61-80%)	5 (5=81-100%)	0	3 (3=41-60%)	5 (5=81-100%)	5 (5=81-100%)	3 (3=41-60%)	4 (4=61-80%)	3 (3=41-60%)	2 (2=21-40%)	
CC#CC(C)OC(=O)c1cc(-c2c(C)n(CC)c(-c3ccc(Cl)c(Cl)c3)c(C(=O)O)c2=O)c(F)cc1Cl (stereo not drawn) [Compound 22, 5-[4-chloro-2-fluoro-5-(1-methylbut-2-ynoxycarbonyl)phenyl]-2-(3,4-dichlorophenyl)-1-ethyl-6-methyl-4-oxo-pyridine-3-carboxylic acid]													percentage damage caused to the plant, AMAPA [1, 13]: 5 (5=81-100%); percentage damage caused to the plant, SETFA [2, 13]: 1 (1=0-20%); percentage damage caused to the plant, ECHCG [3, 13]: 1 (1=0-20%); percentage damage caused to the plant, AMARE [4, 13]: 5 (5=81-100%); percentage damage caused to the plant, ZEAMX [5, 13]: 1 (1=0-20%); percentage damage caused to the plant, IPOHE [6, 13]: 1 (1=0-20%); percentage damage caused to the plant, AMAPA [7, 13]: 5 (5=81-100%); percentage damage caused to the plant, AMARE [8, 13]: 5 (5=81-100%); percentage damage caused to the plant, SETFA [9, 13]: 5 (5=81-100%); percentage damage caused to the plant, ECHCG [10, 13]: 5 (5=81-100%); percentage damage caused to the plant, IPOHE [11, 13]: 5 (5=81-100%); percentage damage caused to the plant, ZEAMX [12, 13]: 3 (3=41-60%)
CCn1c(C)c(-c2cc(C(=O)OC3CCC3)c(Cl)cc2F)c(=O)c(C(=O)O)c1-c1ccc(Cl)c(Cl)c1 [Compound 23, 5-[4-chloro-5-(cyclobutoxycarbonyl)-2-fluoro-phenyl]-2-(3,4-dichlorophenyl)-1-ethyl-6-methyl-4-oxo-pyridine-3-carboxylic acid]	5 (5=81-100%)	5 (5=81-100%)	5 (5=81-100%)	5 (5=81-100%)	2 (2=21-40%)	4 (4=61-80%)	5 (5=81-100%)	5 (5=81-100%)	5 (5=81-100%)	4 (4=61-80%)	2 (2=21-40%)	2 (2=21-40%)	
CCn1c(C)c(-c2cc(C(=O)OC3CCCC3)c(Cl)cc2F)c(=O)c(C(=O)O)c1-c1ccc(Cl)c(Cl)c1 [Compound 24, 5-[4-chloro-5-(cyclopentoxycarbonyl)-2-fluoro-phenyl]-2-(3,4-dichlorophenyl)-1-ethyl-6-methyl-4-oxo-pyridine-3-carboxylic acid]	5 (5=81-100%)	1 (1=0-20%)	1 (1=0-20%)	5 (5=81-100%)	0	3 (3=41-60%)	5 (5=81-100%)	5 (5=81-100%)	5 (5=81-100%)	5 (5=81-100%)	4 (4=61-80%)	3 (3=41-60%)	
